From article PMC9551036, “A selective and orally bioavailable VHL-recruiting PROTAC achieves SMARCA2 degradation in vivo” (Nature Communications, 2022)
Values joined by “and” are separate entries in the source; they are usually repeats but may differ in a detail not shown here. Identical values can stand only once. Like-named read-outs stand apart in the source and are kept apart here.

Tests used:
PBRM1BD5 [1] = target: T1, PBRM1BD5 (Homo sapiens, UniProt P40337+Q86U86); assay: TR-FRET ternary complex affinity and cooperativity, PBRM1; type: binding; conditions: TR-FRET competition for PBRM1BD5, + VCB; mean ± SD; read-out: TR-FRET Ternary PBRM1BD EC50 (PROTAC + VCB)
T1 construct: GST (TEV site) (N); His6 (TEV site) (N, cleaved yes); made in house; host or cells: PBRM1^BD5: Escherichia coli BL21(DE3)
T1 sequence (Q86U86 645-766): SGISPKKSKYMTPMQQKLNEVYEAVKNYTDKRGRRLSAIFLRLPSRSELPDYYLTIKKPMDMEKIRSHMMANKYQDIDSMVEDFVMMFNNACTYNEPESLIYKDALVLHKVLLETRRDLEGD
T1 sequence (P40337 54-213): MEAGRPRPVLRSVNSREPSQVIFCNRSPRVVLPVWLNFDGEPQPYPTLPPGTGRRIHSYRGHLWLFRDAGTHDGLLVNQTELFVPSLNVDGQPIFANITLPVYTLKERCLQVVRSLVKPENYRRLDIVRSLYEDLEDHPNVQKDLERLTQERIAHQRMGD
T1 sequence (Q15369 17-112 partner): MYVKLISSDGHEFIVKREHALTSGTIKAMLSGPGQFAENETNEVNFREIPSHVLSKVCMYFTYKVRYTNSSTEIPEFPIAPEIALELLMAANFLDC
T1 sequence (Q15370 1-104 partner): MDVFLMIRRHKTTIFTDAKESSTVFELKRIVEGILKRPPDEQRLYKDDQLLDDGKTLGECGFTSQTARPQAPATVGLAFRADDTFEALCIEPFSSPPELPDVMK

SMARCA2^BD = target: T2, SMARCA2^BD (Homo sapiens, UniProt P51531); assay: SPR binding to immobilised SMARCA2 bromodomain
T2 construct: P51531-2, residues 1373-1493 with additional N-terminal SM residues; GST (TEV site) (N, cleaved yes); made in house; host or cells: Escherichia coli BL21(DE3)
T2 sequence (P51531 1373-1493 isoform P51531-2): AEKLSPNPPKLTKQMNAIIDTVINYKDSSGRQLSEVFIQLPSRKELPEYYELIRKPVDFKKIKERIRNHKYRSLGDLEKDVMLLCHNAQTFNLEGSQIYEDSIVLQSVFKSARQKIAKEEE
Method: (§1) SMARCA4^BD was provided by the Structural Genomics Consortium (SGC), Toronto[32] and SMARCA2^BD and PRM1^BD5 were synthesised by GeneArt then subcloned into pDEST15 vectors (Invitrogen). The VCB complex was expressed and purified as described previously, with the modification that 0.3 mM IPTG was used for induction of expression. […] Both were stored in 20 mM 4-(2-hydroxyethyl)−1-piperazineethanesulfonic acid (HEPES), 150 mM sodium chloride and 1 mM tris(2-carboxyethyl)phosphine (TCEP) pH 7.5. SMARCA2^BD, SMARCA4^BD and PBRM1^BD5 were expressed in Escherichia coli BL21(DE3) as N-terminal GST fusion proteins with a TEV protease cleavage site. Expression and purification of these proteins has been described previously[32],[33]. Starter cultures were grown overnight at 37 °C in 10 mL of Luria-Bertani (LB) medium with ampicillin (100 μg/mL). The starter cultures were diluted (1:100) in Terrific Broth (TB) medium with ampicillin (100 μg/mL) and grown in a shaking incubator at 37 °C to an optical density (OD600) ~1 before the temperature was lowered for induction (to 23 °C for SMARCA2^BD or 18 °C for SMARCA4^BD and PRRM1^BD5). […] Cells were harvested by centrifugation and stored at −80 °C prior to purification. […] The Lysis buffers were as follows: for SMARCA2^BD: 50 mM HEPES, 500 mM sodium chloride, 5% glycerol, 5 mM dithiothreitol (DTT); for SMARCA4^BD: 25 mM HEPES, 0.3 M sodium chloride, 5% glycerol, 10 mM DTT, pH 7.5; for PBRM1^BD5: 25 mM HEPES, 300 mM sodium chloride, 5% glycerol, 10 mM DTT, pH 7.8; in each case supplemented with complete protease inhibitors (Roche). Affinity purification was performed using Glutathione Sepharose 4B (GE Healthcare) in batch mode or on-column. […] For SMARCA2^BD, prior to TEV protease cleavage the eluted GST-tagged BD was first dialysed into desalting buffer (20 mM HEPES, 250 mM sodium chloride, pH 7.0 + 0.5% glycerol). Where TEV cleavage was performed in solution, a second affinity (GST-trap) column purification step was carried out to remove the GST-tag and uncleaved GST-tagged protein. Proteins were further purified by SEC (HiLoad Superdex-75, 16/600) (GE Healthcare) and stored in Storage buffer (for SMARCA2^BD: 20 mM HEPES, 150 mM sodium chloride, pH 7.5; for SMARCA4^BD: 10 mM HEPES, 0.5 M NaCl, 5% glycerol, pH 7.5; for PBRM1^BD5: 20 mM HEPES, 300 mM NaCl, 5 mM DTT, pH 7.8). For AlphaScreen assays, eluted GST-tagged BDs were purified directly by SEC in the respective storage buffers without TEV cleavage. All chromatography purification steps were performed either at room temperature or 4 °C using an ÄKTA FPLC purification system (GE Healthcare) or a plastic Econo-Pac column (Bio-Rad).
(§2) SPR data were acquired on Biacore 8K or T200 instruments (Cytiva). Target proteins were immobilised at 25 °C on CM5 chips by amine coupling (EDC/NHS, Cytiva) in HBS-P+ running buffer (pH 7.4), containing 2 mM TCEP. […] The reference surface was subsequently deactivated using 1 M ethanolamine. […] Biotinylated VCB was prepared as previously described[27]: in brief, the complex was mixed 1:1 with EZ-Link NHS–PEG4–biotin (Thermo Scientific) and incubated at room temperature for 1 h. Unreacted NHS-biotin was removed using a PD-10 desalting column (Cytiva) into 20 mM HEPES, pH 7.5, 150 mM sodium chloride and 1 mM DTT. The reference surface was generated by deactivating the EDC/NHS-treated surface with 1 M ethanolamine. All interaction experiments were done at 6 °C in running buffer (20 mM TRIS, pH 8.3, 150 mM potassium chloride, 2 mM magnesium chloride, 2 mM TCEP, 0.005% TWEEN 20, 1% dimethyl sulfoxide). For ternary complex measurements, a sensor chip surface with VCB immobilised was used (preparation as described above). Experiments were run in dual-inject mode with 10 µM SMARCA present during the injection and dissociation phase. Sensorgrams from reference surfaces and blank injections were subtracted from the raw data prior to data analysis using Biacore Insight software.

VCB complex = target: T3, VCB complex (Homo sapiens, UniProt P40337); assay: SPR binary binding to immobilised VCB complex
T3 construct: His6 (TEV site) (N, cleaved yes); made in house
T3 sequence (P40337 54-213): as the sequence (P40337 54-213) above
T3 sequence (Q15369 17-112 partner limits assumed): as the sequence (Q15369 17-112 partner) above
T3 sequence (Q15370 1-104 partner limits assumed): as the sequence (Q15370 1-104 partner) above
Method: as §1, §2

PBRM1BD5 [2] = assay: TR-FRET ternary complex affinity and cooperativity, PBRM1; type: binding; conditions: ratio TR-FRET EC50 / TR-FRET EC50 +VCB measured in the same run, PBRM1BD5
[3] = tested on: VCB: PROTAC: SMARCA2^BD ternary complex; assay: TR-FRET ternary complex affinity and cooperativity, SMARCA2; type: binding, human; conditions: ratio TR-FRET EC50 / TR-FRET EC50 +VCB measured in the same run, SMARCA2BD
[4] = SPR, SMARCA2BD, mean ± SD, read-out: SMARCA2 KD
[5] = SPR, individual replicates, read-out: SMARCA2 KD
[6] = binary binding to VCB, mean ± SD

Row | SMILES | EC50 (PBRM1BD5 [1]) | koff (SMARCA2^BD) | kon (SMARCA2^BD) | Kd (SMARCA2^BD; [4]) | Kd (SMARCA2^BD; [5]) | Kd (SMARCA2^BD; read-out: SMARCA2^BD SPR KD) | Kd (VCB complex; [6]) | Kd (VCB complex; binary, individual replicates) | cooperativity α (PBRM1BD) (PBRM1BD5 [2]) | cooperativity α (SMARCA2BD) [3]
1 | CN1CCC(c2ccc3c(c2)n(C2CCCC2)c2nc(=O)c4c(Br)cccc4n32)CC1 [compound 3] | 31 ± 11 nM | 0.09 ± 0.01 s⁻¹ | 1.98e+06 ± 130000 M⁻¹ s⁻¹ | 46 ± 5 nM | 72.2 nM and 83 nM and 78.7 nM and 50.7 nM and 44.6 nM and 41.5 nM | 46 nM |  |  |  | 
2 | Cc1ncsc1-c1ccc([C@H](COC(C)(C)CN2CCC(c3ccc4c(c3)n(C3CCCC3)c3nc(=O)c5c(Br)cccc5n43)CC2)NC(=O)[C@@H]2C[C@@H](O)CN2C(=O)[C@@H](NC(=O)C2(F)CC2)C(C)(C)C)cc1 [compound 28] | 4 ± 2 nM |  |  | 196 ± 3 nM | 199 nM and 193 nM and 195 nM |  | 55 ± 29 nM | 50.4 nM and 131 nM and 47.1 nM and 49.5 nM and 39.6 nM and 49.4 nM and 39.8 nM and 43.6 nM and 44.9 nM | 6.9 ± 1.9 | 3.8 ± 0.4
3 | Cc1ncsc1-c1ccc(CNC(=O)[C@@H]2C[C@@H](O)CN2C(=O)[C@@H](NC(=O)C2(F)CC2)C(C)(C)C)c(OCCOCCOCCN2CCC(c3ccc4c(c3)n(C3CCCC3)c3nc(=O)c5c(Br)cccc5n43)CC2)c1 [compound 21] | 38 ± 4 nM |  |  | 680 ± 121 nM | 650 nM and 814 nM and 577 nM |  | 21 ± 5 nM | 19.9 nM and 27 nM and 21.6 nM and 15.2 nM | 2.0 ± 0.1 | 1.9 ± 0.1
4 | CN1CCN(c2nc(=O)c3c(I)cccc3o2)CC1 [compound 16] |  |  |  | 17900 ± 917 nM | 18100 nM and 16900 nM and 18700 nM |  |  |  |  | 
5 | Cc1ncsc1-c1ccc([C@H](CCCCCN2CCC(c3ccc4c(c3)n(C3CCCC3)c3nc(=O)c5c(Br)cccc5n43)CC2)NC(=O)[C@@H]2C[C@@H](O)CN2C(=O)[C@@H](NC(=O)C2(F)CC2)C(C)(C)C)cc1 [compound 11] | 4 ± 1 nM |  |  |  | 148 nM and 144 nM and 140 nM |  | 9 ± 3 nM | 11.2 nM and 11.4 nM and 9.47 nM and 7.94 nM and 8.34 nM and 7.19 nM and 5.73 nM and 11.9 nM and 4.42 nM | 11.9 ± 1.3 | 5.3 ± 2.1
6 | Cc1ncsc1-c1ccc([C@H](CC[C@H](C)CCN2CCC(c3ccc4c(c3)n(C3CCCC3)c3nc(=O)c5c(Br)cccc5n43)CC2)NC(=O)[C@@H]2C[C@H](O)CN2C(=O)[C@@H](NC(=O)C2(F)CC2)C(C)(C)C)cc1 [compound 12] | 78 ± 7 nM |  |  | 214 ± 15 nM | 202 nM and 231 nM and 209 nM |  | 629 ± 88 nM | 566 nM and 691 nM | 1.0 ± 0.0 | 1.1 ± 0.3
7 | Cc1ncsc1-c1ccc([C@H](COC(C)CN2CCC(c3ccc4c(c3)n(C3CCCC3)c3nc(=O)c5c(Br)cccc5n43)CC2)NC(=O)[C@@H]2C[C@@H](O)CN2C(=O)[C@@H](NC(=O)C2(N(C)C)CC2)C(C)(C)C)cc1 (stereo partly drawn) [compound 10] | 8 ± 1 nM |  |  | 222 ± 6 nM | 228 nM and 218 nM and 219 nM |  | 124 ± 97 nM | 76.7 nM and 269 nM and 65.4 nM and 86 nM | 4.2 ± 0.4 | 10.1 ± 3.8
8 | Nc1cccc2c1c(=O)nc1n(C3CCCC3)c3ccccc3n21 [compound 2] | 959 ± 53 nM |  |  | 1160 ± 421 nM | 826 nM and 632 nM and 916 nM and 1490 nM and 1420 nM and 1670 nM | 1160 nM |  |  |  | 
9 | Cc1ncsc1-c1ccc(CNC(=O)[C@@H]2C[C@H](O)CN2C(=O)[C@@H](NC(=O)C2(F)CC2)C(C)(C)C)c(OCCN2CCC(c3ccc4c(c3)n(C3CCCC3)c3nc(=O)c5c(Br)cccc5n43)CC2)c1 [compound 19] | 40 ± 1 nM |  |  | 64 ± 4 nM | 68.8 nM and 62.9 nM and 60.9 nM |  |  |  | 1.0 ± 0.1 | 1.2 ± 0.1
